How the values were obtained:
ACAT in HepG2 cells = experiment: ACAT inhibitory action in HepG2 cells, cholesterol ester formation; format: cell-based; details: 10 μg/ml 25-OH cholesterol, 18-hr culturing, cholesterol ester per protein, read-out: IC50 (μM) of HepG2-derived enzyme
Protocol: (§1) J774 cells or HepG2 cells were inoculated on a 24-well plate; J774 cells and HepG2 cells were cultured in DMEM and MEM culture broths (each of the broths containing 10% calf fetus serum), respectively, in a 5% CO2 incubator at 37° C. for 24 hours. […] After discarding the culture media, the resulting cultures were rinsed twice with PBS and extracted with 1.5 ml of hexane:isopropanol (3:2), for concentration and drying. The extracts were dissolved in isopropanol containing 0.2 ml of 10% Triton X-100, to assay total cholesterol (TC) and free cholesterol (FC) by using Cholesterol E Test WAKO (manufactured by Wako Pure Chemicals, Co.) and Free Cholesterol E Test Wako (manufactured by Wako Pure Chemicals, Co.). […] Based on the difference between TC and FC, cholesterol ester was calculated per protein, to determine IC50, compared with the calculated control IC50 value.

ACAT in J774 cells = target: T1, ACAT in J774 cells (Mus musculus, UniProt Q61263); experiment: ACAT inhibitory action (anti-foaming action) in J774 cells, cholesterol ester formation; format: cell-based; details: for IC50: J774 cells, 10 μg/ml 25-OH cholesterol, 18-hr culturing, cholesterol ester per protein, read-out: IC50 (μM) of J774-derived enzyme; for IC50 (HepG2)/IC50 (J774): ratio HepG2 / J774
T1 construct: J774 cells or HepG2 cells were inoculated on a 24-well plate; endogenous in cells; host or cells: J774 cells
T1 sequence (Q61263 1-540): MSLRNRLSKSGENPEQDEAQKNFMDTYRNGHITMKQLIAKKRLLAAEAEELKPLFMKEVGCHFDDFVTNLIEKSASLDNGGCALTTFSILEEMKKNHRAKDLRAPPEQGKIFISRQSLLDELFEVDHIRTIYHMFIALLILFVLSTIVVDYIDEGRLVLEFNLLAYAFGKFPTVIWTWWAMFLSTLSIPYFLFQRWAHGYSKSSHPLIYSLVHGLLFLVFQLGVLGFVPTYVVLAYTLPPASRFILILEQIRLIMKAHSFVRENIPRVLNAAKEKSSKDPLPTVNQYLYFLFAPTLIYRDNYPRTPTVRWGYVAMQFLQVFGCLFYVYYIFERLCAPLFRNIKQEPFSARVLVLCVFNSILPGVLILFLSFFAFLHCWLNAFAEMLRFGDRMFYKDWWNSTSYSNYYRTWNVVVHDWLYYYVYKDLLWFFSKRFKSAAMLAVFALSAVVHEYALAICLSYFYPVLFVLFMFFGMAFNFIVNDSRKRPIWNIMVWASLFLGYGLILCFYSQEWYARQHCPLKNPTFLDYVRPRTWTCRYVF
Protocol: as §1

melting point [°C] | IC50 (ACAT in HepG2 cells) [µM] | IC50 (ACAT in J774 cells) [µM] | IC50 (HepG2)/IC50 (J774) (ACAT in J774 cells) | Structure (SMILES)
130 | – | – | – | CC(C)c1cccc(C(C)C)c1NC(=O)CCCCCSc1nc2cccc(C(F)(F)F)c2o1 [Example 74, 6-(7-trifluoromethylbenzoxazol-2-ylthio)-N-(2,6-diisopropylphenyl)hexanamide]
174 to 176 | 10 | 1.64 | 6.1 | CC(C)c1cccc(C(C)C)c1NC(=O)CCCCCSc1nc2cccc(-c3cc[nH]n3)c2o1 [Example 88, 6-[7-(pyrazol-3-yl)benzoxazol-2-ylthio]-N-(2,6-diisopropylphenyl)hexanamide]
175 to 177 | – | – | – | CC(C)c1cccc(C(C)C)c1NC(=O)CCCCCSc1nc2cccc(C(=O)O)c2o1 [Example 47, 6-(7-carboxybenzoxazol-2-ylthio)-N-(2,6-diisopropylphenyl)hexanamide]
157 to 158 | – | – | – | COC(=O)c1ccc2nc(SCCCCCC(=O)Nc3c(C(C)C)cccc3C(C)C)oc2c1 [Example 40, 6-(6-methoxycarbonylbenzoxazol-2-ylthio)-N-(2,6-diisopropylphenyl)hexanamide]
96 to 98 | 10 | 10 | 1.0 | CC(C)c1cccc(C(C)C)c1NC(=O)CCCCCSc1nc2cnccc2[nH]1 [Example 6, 6-(imidazolo[4,5-c]pyridin-2-ylthio)-N-(2,6-diisopropylphenyl)hexanamide]
190 to 192 | – | – | – | COC(=O)c1ccc2nc(SCCCCCC(=O)Nc3c(C(C)C)cccc3C(C)C)[nH]c2c1 [Example 63, 6-(5-methoxycarbonylbenzimidazol-2-ylthio)-N-(2,6-diisopropylphenyl)hexanamide]
177 to 178 | – | – | – | CC(C)c1cccc(C(C)C)c1NC(=O)CCCCCNc1nc2cccnc2o1 [Example 20, 6-(oxazolo[5,4-b]pyridin-2-ylamino)-N-(2,6-diisopropylphenyl)hexanamide]
129 to 130 | 0.42 | 0.47 | 0.9 | CC(C)c1cccc(C(C)C)c1NC(=O)CCCCCSc1nc2c(N(C)C)cccc2o1 [Example 28, 6-(4-N,N-dimethylaminobenzoxazol-2-ylthio)-N-(2,6-diisopropylphenyl)hexanamide]
190 to 191 | – | – | – | CC(C)c1cccc(C(C)C)c1NC(=O)CCCCCSc1ncc[nH]1 [Example 68, 6-(imidazol-2-ylthio)-N-(2,6-diisopropylphenyl)hexanamide]
93 to 95 | – | – | – | CC(C)c1cccc(C(C)C)c1NC(=O)CCCCCSc1nc2ccc(CO)cc2o1 [Example 42, 6-(6-hydroxymethylbenzoxazol-2-ylthio)-N-(2,6-diisopropylphenyl)hexanamide]
113 to 115 | – | 1.31 | – | CC(C)c1cccc(C(C)C)c1NC(=O)CCCCCSc1nc2c(CN(C)C)cccc2o1 [Example 27, 6-[4-(N,N-dimethylaminomethyl)benzoxazol-2-ylthio]-N-(2,6-diisopropylphenyl)hexanamide]
91 to 92 | – | – | – | CC(C)c1cccc(C(C)C)c1NC(=O)CCCCCSc1nc2cccc(CO)c2o1 [Example 48, 6-[7-hydroxymethylbenzoxazol-2-ylthio]-N-(2,6-diisopropylphenyl)hexanamide]
129 to 130 | – | – | – | CC(C)c1cccc(C(C)C)c1NC(=O)CCCCCSc1nc2cccc(N(C)C)c2o1 [Example 50, 6-(7-N,N-dimethylaminobenzoxazol-2-ylthio)-N-(2,6-diisopropylphenyl)hexanamide]
137 to 138 | – | – | – | CC(C)c1cccc(C(C)C)c1NC(=O)CCCCCSc1nc2cccnc2s1 [Example 21, 6-(thiazolo[5,4-b]pyridin-2-ylthio)-N-(2,6-diisopropylphenyl)hexanamide]
82 to 84 | – | – | – | CC(C)c1cccc(C(C)C)c1NC(=O)CCCCCSc1nc2ccc(CN(C)C)cc2o1 [Example 43, 6-[6-(N,N-dimethylaminomethyl)benzoxazol-2-ylthio]-N-(2,6-diisopropylphenyl)hexanamide]
130 to 132 | – | 1.83 | – | CC(C)c1cccc(C(C)C)c1NC(=O)CCCCCSc1nc2cc(N(C)C)ccc2o1 [Example 38, 6-(5-N,N-dimethylaminobenzoxazol-2-ylthio)-N-(2,6-diisopropylphenyl)hexanamide]
102 to 104 | – | – | – | CC(C)c1cccc(C(C)C)c1NC(=O)CCCCCSc1nc2cccc(CN(C)C)c2o1 [Example 49, 6-[7-(N,N-dimethylaminomethyl)benzoxazol-2-ylthio]-N-(2,6-diisopropylphenyl)hexanamide]

Second part, the compound before the results:

Structure (SMILES) | melting point [°C] | IC50 (ACAT in HepG2 cells) [µM] | IC50 (ACAT in J774 cells) [µM] | IC50 (HepG2)/IC50 (J774) (ACAT in J774 cells)
COC(=O)c1ccc2oc(SCCCCCC(=O)Nc3c(C(C)C)cccc3C(C)C)nc2c1 [Example 34, 6-(5-methoxycarbonylbenzoxazol-2-ylthio)-N-(2,6-diisopropylphenyl)hexanamide] | 104 to 106 | 8.15 | 0.6 | 13.5
COC(=O)c1cccc2nc(SCCCCCC(=O)Nc3c(OC)cc(OC)cc3OC)oc12 [Example 62, 6-(7-methoxycarbonylbenzoxazol-2-ylthio)-N-(2,4,6-trimethoxyphenyl)hexanamide] | 136 to 138 | – | – | –
CC(C)c1cccc(C(C)C)c1NC(=O)CCCCCSc1nc2cccc(CN3CCOCC3)c2o1 [Example 51, 6-[7-(1-morpholino)methylbenzoxazol-2-ylthio]-N-(2,6-diisopropylphenyl)hexanamide] | 117 to 118 | – | – | –
CCOC(=O)c1cccc2nc(SCCCCCC(=O)Nc3c(C(C)C)cccc3C(C)C)oc12 [Example 79, 6-(7-ethoxycarbonylbenzoxazol-2-ylthio)-N-(2,6-diisopropylphenyl)hexanamide] | 114 to 116 | – | – | –
COC(=O)c1ccc2nc(SCCCCCCCCC(=O)Nc3c(C(C)C)cccc3C(C)C)oc2c1 [Example 54, 9-(6-methoxycarbonylbenzoxazol-2-ylthio)-N-(2,6-diisopropylphenyl)nonanamide] | 122 to 124 | – | – | –
CC(C)c1cccc(C(C)C)c1NC(=O)CCCCCCCCSc1nc2cccc(C(F)(F)F)c2o1 [Example 75, 9-(7-trifluoromethylbenzoxazol-2-ylthio)-N-(2,6-diisopropylphenyl)nonanamide] | 82 to 84 | 0.089 | 0.012 | 7.4
CC(C)c1cccc(C(C)C)c1NC(=O)CCCCCSc1nc2cc(OCc3ccccc3)ccc2o1 [Example 29, 6-(5-benzyloxybenzoxazol-2-ylthio)-N-(2,6-diisopropylphenyl)hexanamide] | 102 to 104 | 1.9 | 0.26 | 7.3
CC(C)c1cccc(C(C)C)c1NC(=O)C(C)(C)CCCOc1ccc2c(c1)C=C(c1nccn1C)C(CCc1ccc(F)cc1)O2 (centres unmarked) [Control 1, 5-[2-(2-(4-fluorophenyl)ethyl)-3-(1-methyl-1H-imidazol-2-yl)-2H-1-benzopyran-6-yl]oxy-2,2-dimethyl-N-(2,6-diisopropylphenyl)pentanamide, reference compound] | – | – | 0.56 | 9.5
COC(=O)c1cccc2nc([S+]([O-])CCCCCCCNC(=O)Nc3c(C(C)C)cccc3C(C)C)oc12 (centres unmarked) [Example 56, N-(2,6-diisopropylphenyl)-N′-[7-(7-methoxycarbonylbenzoxazol-2-ylsulfinyl)heptyl]urea] | 145 to 147 | – | – | –
COC(=O)c1cccc2nc(SCCCCCCCNC(=O)Nc3c(C(C)C)cccc3C(C)C)oc12 [Example 55, N-(2,6-diisopropylphenyl)-N′-[7-(7-methoxycarbonylbenzoxazol-2-ylthio)heptyl]urea] | 179 to 181 | – | – | –
CC(C)c1cccc(C(C)C)c1NC(=O)CCCCCSc1nc2cccc(-c3nnn[nH]3)c2o1 [Example 52, 6-[7-(tetrazol-5-yl)benzoxazol-2-ylthio)-N-(2,6-diisopropylphenyl)hexanamide] | 218 to 220 | – | – | –
COC(=O)c1c(O)ccc2nc(SCCCCCC(=O)Nc3c(C(C)C)cccc3C(C)C)oc12 [Example 91, 6-[6-hydroxy-7-methoxycarbonylbenzoxazol-2-ylthio)-N-(2,6-diisopropylphenyl)hexanamide] | 155 to 156 | – | – | –
